In PubChem BioAssay AID1963970 (Molecular Pharmacology Branch, DTP, NCI, 2024):

System: 931267-113-T-J1-PDC multicell spheroid viability
Experiment: Anticancer human tumor 931267-113-T-J1-PDC patient-derived colon adenocarcinoma cell line growth inhibition [PI3K]
Settings: for IC50: curve of first compound; for viability, T/C: stronger effect = lower value
In short: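 Stroma-containing spheroids: tumor line, pooled-donor HUVEC, hMSC. Treatments: targeted agents with PI3K inhibitors. Dosing: clinically relevant, half-log spacing, 10 microM ceiling without known Cmax. Read-out: cell viability.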

[1] = second compound 0.0316 µM, first compound 0.0316 µM
[2] = second compound 0.0316 µM, first compound 0.1 µM
[3] = second compound 0.0316 µM, first compound 0.316 µM
[4] = second compound 0.0316 µM, first compound 1 µM
[5] = second compound 0.0316 µM, first compound 3.16 µM
[6] = second compound 0.0316 µM, first compound 10 µM
[7] = second compound 0.1 µM, first compound 0.0316 µM
[8] = second compound 0.1 µM, first compound 0.1 µM
[9] = second compound 0.1 µM, first compound 0.316 µM
[10] = second compound 0.1 µM, first compound 1 µM
[11] = second compound 0.1 µM, first compound 3.16 µM
[12] = second compound 0.1 µM, first compound 10 µM
[13] = second compound 0.316 µM, first compound 0.0316 µM
[14] = second compound 0.316 µM, first compound 0.1 µM
[15] = second compound 0.316 µM, first compound 0.316 µM
[16] = second compound 0.316 µM, first compound 1 µM
[17] = second compound 0.316 µM, first compound 3.16 µM
[18] = second compound 0.316 µM, first compound 10 µM
[19] = second compound 1 µM, first compound 0.0316 µM
[20] = second compound 1 µM, first compound 0.1 µM
[21] = second compound 1 µM, first compound 0.316 µM
[22] = second compound 1 µM, first compound 1 µM
[23] = second compound 1 µM, first compound 3.16 µM
[24] = second compound 1 µM, first compound 10 µM
[25] = second compound 3.16 µM, first compound 0.0316 µM
[26] = second compound 3.16 µM, first compound 0.1 µM
[27] = second compound 3.16 µM, first compound 0.316 µM
[28] = second compound 3.16 µM, first compound 1 µM
[29] = second compound 3.16 µM, first compound 3.16 µM
[30] = second compound 3.16 µM, first compound 10 µM
[31] = second compound 10 µM, first compound 0.0316 µM
[32] = second compound 10 µM, first compound 0.1 µM
[33] = second compound 10 µM, first compound 0.316 µM
[34] = second compound 10 µM, first compound 1 µM
[35] = second compound 10 µM, first compound 3.16 µM
[36] = second compound 10 µM, first compound 10 µM
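Further: viability read 7 days after compound addition.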

`C=CC(=O)N1CCN(c2nc(=O)n(-c3c(C)ccnc3C(C)C)c3nc(-c4c(O)cccc4F)c(F)cc23)C(C)C1` (stereo unspecified) + CC(Nc1ncnc2nc[nH]c12)c1cc2cccc(Cl)c2c(=O)n1-c1ccccc1 showed an IC50 (second compound 0.0316 µM) greater than 10 µM, an IC50 (second compound 0.1 µM) greater than 10 µM and an IC50 (second compound 0.316 µM) greater than 10 µM. For the same molecule, the IC50 (second compound 1 µM) was greater than 10 µM, the IC50 (second compound 3.16 µM) was greater than 10 µM and the IC50 (second compound 10 µM) was greater than 10 µM. The viability, T/C [1] was 97.5%, the viability, T/C [2] was 103% and the viability, T/C [3] was 96.6%. For the same molecule, the viability, T/C [4] was 111%, the viability, T/C [5] was 107% and the viability, T/C [6] was 107%. The viability, T/C [7] was 110%, the viability, T/C [8] was 113% and the viability, T/C [9] was 107%. The viability, T/C [10] was 111%, the viability, T/C [11] was 117% and the viability, T/C [12] was 94.2%. It also gave a viability, T/C [13] of 112%, a viability, T/C [14] of 109% and a viability, T/C [15] of 116%. The viability, T/C [16] was 107%, the viability, T/C [17] was 114% and the viability, T/C [18] was 96.5%. It also gave a viability, T/C [19] of 108%, a viability, T/C [20] of 109% and a viability, T/C [21] of 99.5%. It also gave a viability, T/C [22] of 105%, a viability, T/C [23] of 111% and a viability, T/C [24] of 88.3%. For the same molecule, the viability, T/C [25] was 104%, the viability, T/C [26] was 101% and the viability, T/C [27] was 93.5%. The viability, T/C [28] was 99.9%, the viability, T/C [29] was 107% and the viability, T/C [30] was 87%. The viability, T/C [31] was 94.9%, the viability, T/C [32] was 96.8% and the viability, T/C [33] was 107%. The viability, T/C [34] was 98.1%, the viability, T/C [35] was 106% and the viability, T/C [36] was 102%.

With `CC(Cn1ccc(-c2ccc(C#N)c(Cl)c2)n1)NC(=O)c1cc(C(C)O)[nH]n1` (stereo unspecified) + CC(Nc1ncnc2nc[nH]c12)c1cc2cccc(Cl)c2c(=O)n1-c1ccccc1 the IC50 (second compound 0.0316 µM) was greater than 10 µM, the IC50 (second compound 0.1 µM) was greater than 10 µM and the IC50 (second compound 0.316 µM) was greater than 10 µM. It also gave an IC50 (second compound 1 µM) greater than 10 µM, an IC50 (second compound 3.16 µM) greater than 10 µM and an IC50 (second compound 10 µM) greater than 10 µM. It also gave a viability, T/C [1] of 104%, a viability, T/C [2] of 110% and a viability, T/C [3] of 106%. The viability, T/C [4] was 105%, the viability, T/C [5] was 116% and the viability, T/C [6] was 96.7%. For the same molecule, the viability, T/C [7] was 114%, the viability, T/C [8] was 101% and the viability, T/C [9] was 102%. It also gave a viability, T/C [10] of 108%, a viability, T/C [11] of 102% and a viability, T/C [12] of 103%. For the same molecule, the viability, T/C [13] was 111%, the viability, T/C [14] was 107% and the viability, T/C [15] was 104%. For the same molecule, the viability, T/C [16] was 107%, the viability, T/C [17] was 105% and the viability, T/C [18] was 101%. It also gave a viability, T/C [19] of 113%, a viability, T/C [20] of 110% and a viability, T/C [21] of 102%. It also gave a viability, T/C [22] of 118%, a viability, T/C [23] of 107% and a viability, T/C [24] of 102%. For the same molecule, the viability, T/C [25] was 103%, the viability, T/C [26] was 98.5% and the viability, T/C [27] was 87%. It also gave a viability, T/C [28] of 99.6%, a viability, T/C [29] of 101% and a viability, T/C [30] of 94.7%. The viability, T/C [31] was 88%, the viability, T/C [32] was 94.8% and the viability, T/C [33] was 99.4%. For the same molecule, the viability, T/C [34] was 95.8%, the viability, T/C [35] was 92.5% and the viability, T/C [36] was 87.8%.

Work on `Cn1nccc1Nc1nccc(-c2ccn(C(CO)c3ccc(Cl)c(F)c3)c(=O)c2)n1` (stereo unspecified) + CC(Nc1ncnc2nc[nH]c12)c1cc2cccc(Cl)c2c(=O)n1-c1ccccc1 yielded an IC50 (second compound 0.0316 µM) of 7.95 µM, an IC50 (second compound 0.1 µM) of 7.53 µM and an IC50 (second compound 0.316 µM) of 7.72 µM. The IC50 (second compound 1 µM) was 6.96 µM, the IC50 (second compound 3.16 µM) was 5.22 µM and the IC50 (second compound 10 µM) was 3.03 µM. The viability, T/C [1] was 105%, the viability, T/C [2] was 103% and the viability, T/C [3] was 98.9%. For the same molecule, the viability, T/C [4] was 90.6%, the viability, T/C [5] was 65.7% and the viability, T/C [6] was 46.1%. For the same molecule, the viability, T/C [7] was 111%, the viability, T/C [8] was 109% and the viability, T/C [9] was 92.7%. For the same molecule, the viability, T/C [10] was 87.5%, the viability, T/C [11] was 64.6% and the viability, T/C [12] was 45%. It also gave a viability, T/C [13] of 107%, a viability, T/C [14] of 113% and a viability, T/C [15] of 100%. It also gave a viability, T/C [16] of 78.1%, a viability, T/C [17] of 76.4% and a viability, T/C [18] of 42.7%. The viability, T/C [19] was 114%, the viability, T/C [20] was 109% and the viability, T/C [21] was 92.6%. The viability, T/C [22] was 86.2%, the viability, T/C [23] was 70.3% and the viability, T/C [24] was 40.4%. For the same molecule, the viability, T/C [25] was 109%, the viability, T/C [26] was 94.3% and the viability, T/C [27] was 87.5%. It also gave a viability, T/C [28] of 78%, a viability, T/C [29] of 63.3% and a viability, T/C [30] of 35.1%. For the same molecule, the viability, T/C [31] was 88.2%, the viability, T/C [32] was 86.3% and the viability, T/C [33] was 79.6%. The viability, T/C [34] was 77.4%, the viability, T/C [35] was 48.4% and the viability, T/C [36] was 27.4%.
